# Source: patent publication US8147818B2, “Hepatitis C virus inhibitors” (Bristol-Myers Squibb Company, priority 2008, dated 2012)
# Tested on: HCV 1b-377-neo replicon cells
# Experiment: HCV Replicon assay, HCV 1b-377-neo replicon cells
# Type: cell-based, HCV 1b genotype
# Settings: Hepatitis C virus, read-out: EC50 against HCV 1b (Activity or Range)
# Procedure: An HCV Replicon assay was utilized in the present disclosure, and was prepared, conducted and validated as described in commonly owned PCT/US2006/022197 and in O'Boyle et. al. Antimicrob Agents Chemother. 2005 April; 49(4):1346-53.
# HCV 1b-377-neo replicon cells were used to test the currently described compound series as well as cells resistant to compound A containing a Y2065H mutation in NS5A (described in application PCT/US2006/022197). The compounds tested were determined to have more than 10-fold less inhibitory activity on cells containing the mutation than wild-type cells indicating a related mechanism of action between the two compound series. Thus, the compounds of the present disclosure can be effective to inhibit the function of the HCV NS5A protein and are understood to be as effective in combinations as previously described in application PCT/US2006/022197 and commonly owned WO/O4014852. Further, the compounds of the present disclosure can be effective against the HCV 1b genotype. It should also be understood that the compounds of the present disclosure can inhibit multiple genotypes of HCV. […] In one embodiment compounds of the present disclosure are active against the 1a, 1b, 2a, 2b, 3a, 4a, and 5a genotypes.
row,SMILES,EC50 [nM]
1,CCN(CC)[C@@H](C(=O)N1CC(F)(F)C[C@H]1c1ncc(-c2ccc(-c3ccc4c(ccc5[nH]c([C@@H]6CCCN6C(=O)[C@@H](c6ccccc6)N(CC)CC)nc54)c3)cc2)[nH]1)c1ccccc1 [Example 22w.a],0.12
2,COC(=O)N[C@H](C(=O)N1CCC[C@H]1c1nc2c([nH]1)CCCc1cc(-c3ccc(-c4cnc([C@@H]5CCCN5C(C)=O)[nH]4)cc3)ccc1-2)C(C)C [Example 24],0.32

# Same assay, conditions: Hepatitis C virus, read-out: EC50 against HCV 1b (Activity or Range), range class
row,SMILES,EC50 [nM]
1,CCN(CC)[C@@H](C(=O)N1[C@@H]2C[C@@H]2C[C@H]1c1ncc(-c2ccc(-c3ccc4c(ccc5[nH]c([C@@H]6C[C@H]7C[C@H]7N6C(=O)[C@@H](c6ccccc6)N(CC)CC)nc54)c3)cc2F)[nH]1)c1ccccc1 [Example 22v.1a],0.001 to 0.1
2,COC(=O)N[C@@H](C(=O)N1[C@@H]2C[C@@H]2C[C@H]1c1ncc(-c2ccc(-c3ccc4c(ccc5[nH]c([C@@H]6C[C@H]7C[C@H]7N6C(=O)[C@H](NC(=O)OC)c6ccccc6)nc54)c3)cc2F)[nH]1)c1ccccc1 [Example 22v.1b],0.001 to 0.1
3,CCN(CC)[C@@H](C(=O)N1CCC[C@H]1c1ncc(-c2ccc(-c3ccc4c(ccc5[nH]c([C@@H]6CCCN6C(=O)[C@@H](c6ccccc6)N(CC)CC)nc54)c3)cc2F)[nH]1)c1ccccc1 [Example 22v.a],0.101 to 0.999
4,COC(=O)N[C@H](C(=O)N1CCC[C@H]1c1ncc(-c2ccc(-c3ccc4c(ccc5[nH]c([C@@H]6CCCN6C(=O)[C@@H](NC(=O)OC)C(C)C)nc54)c3)cc2F)[nH]1)C(C)C [Example 22v],0.001 to 0.1
5,COC(=O)N[C@H](C(=O)N1CCC[C@H]1c1ncc(-c2ccc(-c3ccc4c(ccc5[nH]c([C@@H]6CC(F)(F)CN6C(=O)[C@@H](NC(=O)OC)C(C)C)nc54)c3)cc2)[nH]1)C(C)C [Example 22w.1],0.001 to 0.1
6,CCN(CC)[C@@H](C(=O)N1CCC[C@H]1c1ncc(-c2ccc(-c3ccc4c(ccc5[nH]c([C@@H]6CC(F)(F)CN6C(=O)[C@@H](c6ccccc6)N(CC)CC)nc54)c3)cc2)[nH]1)c1ccccc1 [Example 22w.1a],0.001 to 0.1
7,COC(=O)N[C@H](C(=O)N1CC(F)(F)C[C@H]1c1ncc(-c2ccc(-c3ccc4c(ccc5[nH]c([C@@H]6CC(F)(F)CN6C(=O)[C@@H](NC(=O)OC)C(C)C)nc54)c3)cc2)[nH]1)C(C)C [Example 22w.2],0.001 to 0.1
8,CCN(CC)[C@@H](C(=O)N1CC(F)(F)C[C@H]1c1ncc(-c2ccc(-c3ccc4c(ccc5[nH]c([C@@H]6CC(F)(F)CN6C(=O)[C@@H](c6ccccc6)N(CC)CC)nc54)c3)cc2)[nH]1)c1ccccc1 [Example 22w.2a],0.001 to 0.1
9,COC(=O)N[C@H](C(=O)N1CC(F)(F)C[C@H]1c1ncc(-c2ccc(-c3ccc4c(ccc5[nH]c([C@@H]6CCCN6C(=O)[C@@H](NC(=O)OC)C(C)C)nc54)c3)cc2)[nH]1)C(C)C [Example 22w],0.001 to 0.1
10,COC(=O)N[C@H](C(=O)N1CCC[C@H]1c1ncc(-c2ccc(-c3ccc4c(c3)CCCCc3[nH]c([C@@H]5CCCN5C(=O)[C@@H](NC(=O)OC)C(C)C)nc3-4)cc2)[nH]1)C(C)C [Example 22x.1],0.001 to 0.1
11,CCN(CC)[C@@H](C(=O)N1CCC[C@H]1c1ncc(-c2ccc(-c3ccc4c(c3)CCCCc3[nH]c([C@@H]5CCCN5C(=O)[C@@H](c5ccccc5)N(CC)CC)nc3-4)cc2)[nH]1)c1ccccc1 [Example 22x.1a],0.001 to 0.1
12,CCN(CC)[C@@H](C(=O)N1CCC[C@H]1c1nc2c(ccc3cc(-c4ccc5c(ccc6nc([C@@H]7CCCN7C(=O)[C@@H](NC(=O)OC)C(C)C)[nH]c65)c4)ccc32)[nH]1)c1ccccc1 [Example 24.1],0.001 to 0.1
13,COC(=O)N[C@H](C(=O)N1CCC[C@H]1c1nc2ccc3cc(-c4ccc5c(ccc6[nH]c([C@@H]7CCCN7C(=O)[C@H](NC(=O)OC)c7ccccc7)nc65)c4)ccc3c2[nH]1)C(C)C [Example 24.1a],0.001 to 0.1
14,COC(=O)N[C@H](C(=O)N1CCC[C@H]1c1nc2ccc3cc(-c4ccc5c(ccc6[nH]c([C@@H]7CCCN7C(=O)[C@@H](NC(=O)OC)C7CCOCC7)nc65)c4)ccc3c2[nH]1)C(C)C [Example 24.1b],0.001 to 0.1
15,COC(=O)N[C@H](C(=O)N1CCC[C@H]1c1nc2ccc3cc(-c4ccc5c(ccc6[nH]c([C@@H]7CCCN7C(=O)[C@H](O)c7ccccc7)nc65)c4)ccc3c2[nH]1)C(C)C [Example 24.1d],0.001 to 0.1
16,CCN(CC)[C@@H](C(=O)N1[C@@H]2C[C@@H]2C[C@H]1c1nc2c(ccc3cc(-c4ccc5c(ccc6nc([C@@H]7C[C@H]8C[C@H]8N7C(=O)[C@@H](NC(=O)OC)C(C)C)[nH]c65)c4)ccc32)[nH]1)c1ccccc1 [Example 24.2],0.001 to 0.1
17,COC(=O)N[C@H](C(=O)N1[C@@H]2C[C@@H]2C[C@H]1c1nc2ccc3cc(-c4ccc5c(ccc6[nH]c([C@@H]7C[C@H]8C[C@H]8N7C(=O)[C@H](NC(=O)OC)c7ccccc7)nc65)c4)ccc3c2[nH]1)C(C)C [Example 24.2a],0.001 to 0.1
18,COC(=O)N[C@H](C(=O)N1[C@@H]2C[C@@H]2C[C@H]1c1nc2ccc3cc(-c4ccc5c(ccc6[nH]c([C@@H]7C[C@H]8C[C@H]8N7C(=O)[C@@H](NC(=O)OC)C7CCOCC7)nc65)c4)ccc3c2[nH]1)C(C)C [Example 24.2b],0.001 to 0.1
19,COC(=O)N[C@H](C(=O)N1[C@@H]2C[C@@H]2C[C@H]1c1nc2ccc3cc(-c4ccc5c(ccc6[nH]c([C@@H]7C[C@H]8C[C@H]8N7C(=O)C(c7ccccc7)N7C8CCC7CC8)nc65)c4)ccc3c2[nH]1)C(C)C (some centres unmarked) [Example 24.2d],0.001 to 0.1
20,COC(=O)N[C@H](C(=O)N1CCC[C@H]1c1nc2c([nH]1)CCCc1cc(-c3ccc(-c4cnc([C@@H]5CCCN5C(=O)CN(C)C)[nH]4)cc3)ccc1-2)C(C)C [Example 24.a],0.001 to 0.1
21,COC(=O)N[C@@H](C)C(=O)N1CCC[C@H]1c1ncc(-c2ccc(-c3ccc4c(c3)CCCc3[nH]c([C@@H]5CCCN5C(=O)[C@@H](NC(=O)OC)C(C)C)nc3-4)cc2)[nH]1 [Example 24.b],0.001 to 0.1
